Measurements reported in ChEMBL document CHEMBL4270590, “Azulene-based compounds for targeting orexin receptors” (Eur J Med Chem, 2018).
Activity calls are given as the source filed them. The calls are words filed in the database; no cut-off is given here.

Key:
[1] = molecular target: T1, Orexin receptor type 2 (Homo sapiens) (UniProt O43614); assay: Allosteric agonist activity at human OX2 receptor expressed in CHOK1 cells assessed as potentiation of orexin-A induced calcium accumulation preincubated for 30 mins followed by orexin-A addition and measured for 150 secs by calcium-4 dye based FLIPR assay; type: functional, cell-based
T1 sequence (whole entry): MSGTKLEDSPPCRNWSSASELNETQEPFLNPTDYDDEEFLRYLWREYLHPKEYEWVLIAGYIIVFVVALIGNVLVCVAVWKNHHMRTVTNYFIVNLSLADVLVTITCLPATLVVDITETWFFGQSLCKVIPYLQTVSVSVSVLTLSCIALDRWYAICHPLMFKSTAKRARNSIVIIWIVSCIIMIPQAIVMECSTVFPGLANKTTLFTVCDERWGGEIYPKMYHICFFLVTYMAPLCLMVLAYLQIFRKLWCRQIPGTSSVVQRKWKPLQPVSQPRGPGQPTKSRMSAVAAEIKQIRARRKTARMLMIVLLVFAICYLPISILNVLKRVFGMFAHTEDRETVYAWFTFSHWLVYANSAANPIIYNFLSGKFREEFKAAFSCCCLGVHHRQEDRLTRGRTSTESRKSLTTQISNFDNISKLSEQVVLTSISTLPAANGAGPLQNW

[2] = molecular target: T1, Orexin receptor type 2 (Homo sapiens); assay: Allosteric agonist activity at human OX2 receptor expressed in CHOK1 cells assessed as potentiation of orexin-A induced calcium accumulation at 10 uM preincubated for 30 mins followed by orexin-A addition and measured for 150 secs by calcium-4 dye based FLIPR assay relative to control; type: functional, cell-based
[3] = Solubility of the compound in water; type: physicochemical; conditions: buffer
[4] = molecular target: T2, Orexin/Hypocretin receptor type 1 (Homo sapiens) (UniProt O43613); assay: Allosteric agonist activity at human OX1 receptor expressed in CHOK1 cells assessed as potentiation of orexin-A induced calcium accumulation at 5 uM preincubated for 30 mins followed by orexin-A addition and measured for 150 secs by calcium-4 dye based FLIPR assay relative to control; type: functional, cell-based
T2 sequence (whole entry): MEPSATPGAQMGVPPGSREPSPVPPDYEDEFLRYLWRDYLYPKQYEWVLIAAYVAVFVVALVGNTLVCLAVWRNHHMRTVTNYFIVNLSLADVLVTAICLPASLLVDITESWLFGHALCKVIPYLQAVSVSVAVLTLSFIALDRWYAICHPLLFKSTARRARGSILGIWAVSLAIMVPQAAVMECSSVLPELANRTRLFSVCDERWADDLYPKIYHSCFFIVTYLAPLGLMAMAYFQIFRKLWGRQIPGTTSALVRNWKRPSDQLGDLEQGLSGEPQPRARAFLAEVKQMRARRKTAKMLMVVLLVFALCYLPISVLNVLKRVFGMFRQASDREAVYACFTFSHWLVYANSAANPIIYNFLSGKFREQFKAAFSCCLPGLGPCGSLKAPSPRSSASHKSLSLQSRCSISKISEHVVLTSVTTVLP

[5] = molecular target: T2, Orexin/Hypocretin receptor type 1 (Homo sapiens); assay: Agonist activity at human OX1 receptor expressed in CHOK1 cells assessed as increase in calcium accumulation at 10 uM incubated for 30 mins measured for 150 secs by calcium-4 dye based FLIPR assay relative to orexin-A; type: functional, cell-based
[6] = molecular target: T2, Orexin/Hypocretin receptor type 1 (Homo sapiens); assay: Allosteric agonist activity at human OX1 receptor expressed in CHOK1 cells assessed as potentiation of orexin-A induced calcium accumulation at 10 uM preincubated for 30 mins followed by orexin-A addition and measured for 150 secs by calcium-4 dye based FLIPR assay relative to control; type: functional, cell-based
[7] = system: CHO-K1; assay: Effect on ATP-induced intracellular calcium accumulation in CHOK1 cells expressing human OXR at 10 uM incubated for 30 mins and measured for 150 secs by calcium-4 dye based FLIPR assay; type: functional, cell-based; conditions: Cricetulus griseus
[8] = molecular target: T2, Orexin/Hypocretin receptor type 1 (Homo sapiens); assay: Allosteric agonist activity at human OX1 receptor expressed in CHOK1 cells assessed as potentiation of orexin-A induced calcium accumulation preincubated for 30 mins followed by orexin-A addition and measured for 150 secs by calcium-4 dye based FLIPR assay; type: functional, cell-based
[9] = molecular target: T1, Orexin receptor type 2 (Homo sapiens); assay: Agonist activity at human OX2 receptor expressed in CHOK1 cells assessed as increase in calcium accumulation at 10 uM incubated for 30 mins measured for 150 secs by calcium-4 dye based FLIPR assay relative to orexin-A; type: functional, cell-based
[10] = molecular target: T1, Orexin receptor type 2 (Homo sapiens); assay: Displacement of [125I]-orexin-A from human OX2 receptor expressed in CHOK1 cells at 10 uM incubated for 10 mins and measured after 90 mins by liquid scintillation counting method relative to control; type: cell-based
[11] = molecular target: T2, Orexin/Hypocretin receptor type 1 (Homo sapiens); assay: Displacement of [125I]-orexin-A from human OX1 receptor expressed in CHOK1 cells at 10 uM incubated for 10 mins and measured after 90 mins by liquid scintillation counting method relative to control; type: cell-based
[12] = Colloidal aggregating behavior of the compound at 18 to 30 uM by nephelometric method; type: physicochemical
[13] = molecular target: T3, Orexin receptor type 2 (Homo sapiens, UniProt O43614); assay: Antagonist activity at human OX2 receptor expressed in CHOK1 cells assessed as inhibition of orexin-A-induced calcium accumulation preincubated for 30 mins followed by orexin-A addition measured for 150 secs by calcium-4 dye based FLIPR assay; type: functional, cell-based; conditions: read-out: Ki(app)
T3 sequence (O43614 whole entry): T1 sequence (whole entry)

[14] = molecular target: T4, Orexin/Hypocretin receptor type 1 (Homo sapiens, UniProt O43613); assay: Antagonist activity at human OX1 receptor expressed in CHOK1 cells assessed as inhibition of orexin-A-induced calcium accumulation preincubated for 30 mins followed by orexin-A addition measured for 150 secs by calcium-4 dye based FLIPR assay; type: functional, cell-based; conditions: read-out: Ki(app)
T4 sequence (O43613 whole entry): T2 sequence (whole entry)

COC(=O)Cc1ccc2ccc(C(=O)c3ccc(C(F)(F)F)cc3)c-2cc1
Activity [1]: Dose-dependent effect
fold change (FC) [2]: 1.34
solubility [3]: Insoluble
fold change (FC) [4]: 1.4
Emax [5]: 1.28%
fold change (FC) [6]: 2.03
Activity [7]: inactive
Activity [8]: Dose-dependent effect
Emax [9]: 0.37%
inhibition [10]: 1%

COC(=O)c1cccc2c(C=O)cc(I)c-2c1
Emax [5]: 1.59%
inhibition [11]: 40.7%
Activity [12]: Active
Ki [13]: 3.6 µM
Emax [9]: 0.68%
inhibition [10]: 47.2%
Ki [14]: 4.8 µM
